Data: PubChem BioAssay (NCI)
Several values for one entry are separate records, joined by “and”; a condition that tells them apart may be missing. Equal entries are not always repeated.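 48-hour exposure; five concentrations; linearly interpolated endpoints. Here, GI50 denotes the concentration required for 50% inhibition of growth. Definition used: TGI = concentration required for complete inhibition of growth.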

Assays:
Assay in all cases: NCI tumour cell line growth inhibition, 48 h
[1] = test system: KM12 colon
[2] = test system: T-47D breast
[3] = test system: SK-OV-3 ovarian
[4] = test system: M14 melanoma
[5] = test system: SK-MEL-28 melanoma
[6] = test system: SN12C renal
[7] = test system: MALME-3M melanoma
[8] = test system: NCI-H226 lung
[9] = test system: HOP-92 NSCLC
[10] = test system: HCT-116 colon

Row | SMILES | GI50 [1] | TGI [1] | GI50 [2] [µM] | TGI [2] [µM] | GI50 [3] | TGI [3] | GI50 [4] | TGI [4] | GI50 [5] | TGI [5] | GI50 [6] [µM] | TGI [6] | GI50 [7] | TGI [7] | GI50 [8] | TGI [8] | GI50 [9] | TGI [9] | GI50 [10] [µM] | TGI [10]
1 | COc1ccc(C(=O)CC(Cl)=C(Cl)Cl)cc1 | 71.2 µM | > 100 µM | 26.2 | 61.9 | > 100 µM | > 100 µM | 27.5 µM | 66.1 µM | 16 µM | 37.2 µM | 34.6 | > 100 µM | 20.4 µM | 43 µM | 34.1 µM | 85.7 µM | 19.3 µM | 53.7 µM | 22.2 | 63.4 µM
2 | COc1c(C)cnc(Cn2cnc3c(Cl)nc(N)nc32)c1C | 0.0854 µM |  | 0.11 | > 100 | 0.23 µM | > 70.6 µM | 0.478 µM | > 100 µM | 0.546 µM | > 83.4 µM | 0.336 | > 100 µM | 0.38 µM | 58.3 µM | 0.594 µM | > 100 µM | 0.467 µM | 2.8 µM | 0.12 | > 100 µM
3 | C=C1C(=O)O[C@H]2[C@H]1CC/C(Cn1cc(CNC(=O)c3cc4ccccc4[nH]3)nn1)=C\CC[C@@]1(C)O[C@@H]21 | 11.4 µM | 26.7 µM | 3.55 | 20.4 | 50.4 µM | > 100 µM | 2.09 µM | 6.27 µM | 2.18 µM | 4.69 µM | 1.97 | 4.66 µM | 1.75 µM | 3.55 µM | 2.57 µM | 6.15 µM | 1.53 µM | 3.16 µM | 1.59 | 3.56 µM
4 | O=C(/C=C/CN1CCCCC1)Nc1cc2c(Nc3ccc(F)c(Cl)c3F)ncnc2cc1OCCOC(F)F | 2.44 µM | 9.01 µM | 0.0535 | 1.37 | < 0.0201 µM | 0.263 µM | 2.12 µM | 6.61 µM | 2.27 µM | 9.19 µM | 0.318 | 5.93 µM | 1.18 µM | 2.91 µM | 1.48 µM | 5.73 µM | 0.0548 µM | 1.12 µM | 1.31 | 8.43 µM
5 | COc1cc2c(c(OC)c1OC)-c1c(c3ccc([N+](=O)[O-])cc3c(=O)n1CCCN=[N+]=[N-])C2=O | > 100 µM | > 100 µM | 34.8 | > 100 | 23.1 µM | 55.2 µM | 34.4 µM | > 100 µM | > 100 µM | > 100 µM | 30.4 | > 100 µM | 23.2 µM | 96.9 µM | 28.4 µM | 71.8 µM | 21.5 µM | 80.2 µM | 14.2 | 38 µM
6 | CC1SC(c2cccc(Oc3ccccc3)c2)N(CCc2cccs2)C1=O (centres undefined) | 0.626 µM | 2.49 µM | 0.594 | 5.11 | 1.92 µM | 5.32 µM | 1.02 µM | 2.34 µM | 1.42 µM | 2.78 µM | 1.25 | 2.7 µM | 1.73 µM | 3.58 µM | 1.28 µM | 2.94 µM | 0.486 µM | 1.86 µM | 0.457 | 1.76 µM
7 | CC(=O)OC1C(OC/C2=C/C3[C@@H](C(C)C)CC=C(C)[C@@H]3CC(OC(=O)/C=C/c3cn(C)cn3)[C@]3(C)C=C[C@@]2(O)O3)OCC(O)C1O (some centres undefined) | 0.0123 µM |  | 0.0219 | > 50 | 0.0132 µM |  |  |  | 0.0389 µM | > 50 µM | 0.186 | > 50 µM | 0.0195 µM | > 50 µM |  | > 50 µM | 1.02 µM | > 50 µM | 0.011 | > 50 µM
8 | Oc1ccc(-c2nc(-c3ccc4oc5ccc(-c6[nH]c(-c7ccc(O)cc7)nc6-c6ccccc6)cc5c4c3)c(-c3ccccc3)[nH]2)cc1 | 2.88 µM | 7.92 µM | 4.66 | > 100 | 17 µM | 42.4 µM | 3.9 µM | > 100 µM | 7.39 µM | 40 µM | 3.39 | 27 µM | 9.07 µM | 68 µM | 13.3 µM | > 100 µM | 2.19 µM | 6.53 µM | 3.85 | > 100 µM
9 | O=C1/C(=C/c2ccc([N+](=O)[O-])s2)Oc2ccc(Cl)cc21 | 0.24 µM | 0.593 µM | 0.309 | 1.64 | 2.1 µM | 4.42 µM | 0.512 µM | 1.52 µM | 0.336 µM | 0.881 µM | 0.593 | 1.79 µM | 0.526 µM | 1.38 µM | 1.39 µM | 3.93 µM | 0.176 µM | 0.519 µM | 0.222 | 0.535 µM
10 | CCCCCCn1c(=N)n(CC(O)COc2cccc(C)c2)c2ccccc21 (centres undefined) | 2.04 µM | 4.17 µM | 2.19 | 4.86 | 3.38 µM | 9.32 µM | 1.83 µM | 3.42 µM | 1.87 µM | 3.51 µM | 3.21 | 13.8 µM | 1.92 µM | 3.66 µM | 3.14 µM | 12.5 µM | 2.2 µM | 8.02 µM | 1.36 | 2.89 µM
11 | C[CH2][Ge]1([CH2]C)[CH2]CC2(CCN(CCCN(C)C)C2)C[CH2]1 | 1.83 µM and 10.2 µM | 4.02 µM and 22.2 µM | 1.65 | 3.25 | 2.64 µM and 3.59 µM | 6.11 µM and 9.62 µM | 0.333 µM | 0.624 µM | 1.34 µM and 1.79 µM | 2.71 µM and 3.27 µM | 1.38 | 4.62 µM | 1.05 µM and 2.65 µM | 1.96 µM and 4.33 µM | 2.24 µM and 17.3 µM | 4.92 µM and 32.1 µM | 0.201 µM and 1 µM | 1.65 µM and 1.34 µM | 1.45 | 2.79 µM and 1 µM
12 | CCCCCCCCCCCCOC1C(C(COC2OC(C(O)CO)C3OC(C)(C)OC23)OC(=O)Nc2ccc([N+](=O)[O-])cc2)OC2OC(C)(C)OC21 (centres undefined) | 2 µM | 4.1 µM | 4.71 | 16.9 | 15.9 µM | 30.8 µM | 1.81 µM | 3.44 µM | 9.84 µM | 22.7 µM | 1.78 | 3.52 µM | 3.16 µM | 9.64 µM | 2.98 µM | 11.2 µM | 3.82 µM | 14.7 µM | 1.77 | 3.45 µM
13 | COC(=O)c1cc(CNCCc2c[nH]c3ccccc23)on1 |  | > 100 µM |  | > 100 |  | > 100 µM |  | > 100 µM |  | > 100 µM |  | > 100 µM |  | > 100 µM |  | > 100 µM |  | > 100 µM |  | > 100 µM
14 | N#Cc1ccccc1C#C/C=C\C#Cc1cnccn1 | 3.49 µM | > 31.5 µM | > 66.3 | > 100 | 52.7 µM | > 100 µM | 5.78 µM | 13.8 µM | 35.2 µM | > 100 µM | 13.8 | 41.5 µM | 22.3 µM | 81.4 µM | 26.6 µM | > 83.1 µM |  | > 28.4 µM | 12.5 | > 100 µM
15 | Cn1cc(C2=C(c3cn(CCCSC(=N)N)c4ccccc34)C(=O)NC2=O)c2ccccc21 | 2.07 µM | 5.97 µM | 1.11 | 5.12 | 5 µM | 15.4 µM | 3.56 µM | 7.77 µM | 1.3 µM | 4.48 µM | 1.83 | 5.56 µM | 3.84 µM | 8.34 µM | 1.49 µM | 7.29 µM | 3.83 µM | 11.2 µM | 1.1 | 4.62 µM
16 | CCN(CC)CCCC(C)NC(=S)N/N=C(\C)c1ccccn1 (centres undefined) | 4.02 µM | > 100 µM | 5.36 | > 100 |  |  | 2.8 µM | 17.8 µM | 16.9 µM | > 100 µM | 4.14 | > 100 µM | 3.96 µM | > 100 µM | 2.28 µM | 21.2 µM | 3.98 µM | > 100 µM | 2.3 | > 100 µM
17 | COc1cccc2c1C(=N)c1c(O)c3c(c(O)c1C2=O)C[C@@](O)(C(C)=O)C[C@@H]3OC1CC(N)C(O)C(C)O1 (some centres undefined) |  | 2.55 µM and 1.94 µM and 10.4 µM | 0.0174 | 4.86 |  | 1.85 µM and 4.8 µM and 13.6 µM | 0.705 µM and 0.206 µM | 4.58 µM and 1.59 µM |  | 5.83 µM and 13.7 µM and 20.1 µM |  | 1.28 µM and 1.92 µM and 2.23 µM |  | 1.83 µM and 5.14 µM and 2.21 µM |  |  |  | 2.71 µM and 3.58 µM |  | 1.77 µM and 2.53 µM and 10.4 µM
18 | Cn1cnc2nc(Cl)nc(Cl)c21 | 0.43 µM | 2.46 µM | 0.489 | 26.8 | 4.32 µM | > 100 µM |  |  | 4.35 µM | 16.5 µM | 3.37 | 24.1 µM | 13.6 µM | 50.3 µM | 12.4 µM | 31.4 µM | 2.09 µM | 10.5 µM | 0.323 | 13.3 µM
19 | Cc1cc(N2CCOCC2)nc(N(CCNc2ccnc3cc(Cl)ccc23)Cc2cccs2)n1 | 2.23 µM | 5.34 µM | 1.84 | 4.4 |  |  | 1.79 µM | 3.41 µM | 1.76 µM | 3.7 µM | 1.9 | 4.01 µM | 2.06 µM | 3.72 µM |  |  | 0.22 µM | 1.93 µM |  | 
